Entries after “also recorded” stand apart in the source; their conditions may differ. Where no end group is shown, it is not given here.
Tests used:
[1] = system: endogenous Gq receptors; assay: Ca^2+ response through endogenous Gq receptors with or without PTX (control); format: cell-based; settings: HEK293 cells; 100 ng/ml PTX for 16 hr; FIG. 7
Procedure: (§1) The Ca^2+ responses were determined with the aequorin assay. Relative luminescence is expressed as the fold-luminescence of that from the cells treated with the highest cocnetration of the ligand without PTX treatment.
(§2) LPA and ADP, which stimulate Ca^2+ increase through endogenous Gi and Gq receptors, respectively (see, e.g., Moolenaar, Ann. N. Y Acad. Sci. 905:1-10, 2000; Fields et al., Biochem. J. 321:561-571, 1997), were tested as controls. As expected, LPA-induced Ca^2+ response was PTX sensitive while the ADP-induced response was resistant (FIG. 7).

[2] = target: T1, TGR342 (Homo sapiens, UniProt Q969V1); assay: aequorin luminescence assay of intracellular calcium mobilization, TGR342-transfected cells; format: cell-based; settings: for effect on intracellular calcium levels (peptide library screen): peptides at 1 μM, HEK293 or CHO cells co-transfected with pEF6-V5/TGR342 and pcDNA3/AEQ; for TGR342 agonist activity of MCH-related peptides / TGR342 agonist activity at 1 μM: FIG. 5; for TGR342 agonist activity of MCH-related peptides: concentration not given
T1 construct: The full-length TGR342 cDNA was cloned by; V5 (known only from the vector name pEF6-V5); expressed in transfected cells; host or cells: HEK293 and CHO cells, transient
T1 sequence (Q969V1 whole entry): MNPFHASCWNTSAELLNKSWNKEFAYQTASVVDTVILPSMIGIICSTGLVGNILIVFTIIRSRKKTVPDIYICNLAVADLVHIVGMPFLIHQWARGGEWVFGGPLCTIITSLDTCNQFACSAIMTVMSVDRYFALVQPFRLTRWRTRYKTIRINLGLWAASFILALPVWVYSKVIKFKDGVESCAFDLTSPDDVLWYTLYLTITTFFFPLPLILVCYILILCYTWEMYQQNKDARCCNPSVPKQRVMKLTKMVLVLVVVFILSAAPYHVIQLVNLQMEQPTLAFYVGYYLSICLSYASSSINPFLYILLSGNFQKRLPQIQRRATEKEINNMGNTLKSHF
Procedure: HEK293 and CHO cells were transiently co-transfected with pEF6-V5/TGR342 and pcDNA3/AEQ (expressing aequorin). After 24 hours of incubation, the transfected cells were treated for one hour with serum free medium containing 2 μM coelenterazine f (Molecular Probes). The cells were then collected in the assay buffer HBSS (Hanks' Balanced Saline Solution containing 10 mM hepes and 0.1% BSA). Thereafter, the transfected cells were stimulated with the peptides at a concentration of 1 μM and the kinetics of […] from the cells was recorded with a microplate luminometer (EG & G BERTHOLT).

[3] = target: T1, TGR342; assay: [^125I]-MCH binding to membranes of TGR342-transfected HEK293 cells; settings: inhibited by excess unlabeled MCH (data not shown)
[4] = target: T1, TGR342; assay: Ca^2+ response (aequorin assay) with or without pertussis toxin, TGR342-transfected cells; format: cell-based
Procedure: as §1, §2

[5] = target: T2, MCHR1 (Homo sapiens, UniProt Q99705); assay: Ca^2+ response (aequorin assay) with or without pertussis toxin, MCHR1-transfected cells; format: cell-based; settings: MCH stimulation; 100 ng/ml PTX pretreatment for 16 hr
T2 sequence (Q99705 whole entry): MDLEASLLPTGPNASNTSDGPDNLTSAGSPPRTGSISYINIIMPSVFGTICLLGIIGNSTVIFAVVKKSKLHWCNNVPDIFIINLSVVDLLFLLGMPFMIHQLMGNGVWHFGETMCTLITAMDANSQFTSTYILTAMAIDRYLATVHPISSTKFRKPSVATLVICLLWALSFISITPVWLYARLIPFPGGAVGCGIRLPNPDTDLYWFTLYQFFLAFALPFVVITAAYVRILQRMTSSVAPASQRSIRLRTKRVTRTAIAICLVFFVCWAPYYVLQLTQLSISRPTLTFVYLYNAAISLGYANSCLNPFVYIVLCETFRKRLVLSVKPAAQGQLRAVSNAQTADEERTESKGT
Procedure: as §1, §2

[6] = target: T1, TGR342; assay: inositol phosphate production in TGR342-transfected cells with or without PTX; format: cell-based
[7] = target: T2, MCHR1; settings: stated as known; cited from earlier work
[8] = 100 ng/ml PTX pretreatment for 16 hr
[9] = HEK293 (or CHO) cells transfected with pEF6/V5-TGR342

## Nc1ncnc2c1ncn2[C@@H]1O[C@H](COP(=O)(O)OP(=O)(O)O)[C@@H](O)[C@H]1O [ADP]
[1]
  PTX sensitivity of the Ca^2+ response through endogenous Gq receptors: resistant

## CSCC[C@@H]1NC(=O)[C@@H](NC(=O)[C@H](CCCNC(=N)N)NC(=O)[C@H](CC(C)C)NC(=O)[C@H](CCSC)NC(=O)[C@H](CC(=O)O)NC(=O)[C@H](Cc2ccccc2)NC(=O)[C@@H](N)CC(=O)O)CSSC[C@@H](C(=O)N[C@@H](Cc2c[nH]c3ccccc23)C(=O)N[C@@H](CCC(N)=O)C(=O)N[C@H](C(=O)O)C(C)C)NC(=O)[C@@H]2CCCN2C(=O)[C@H](CCCNC(=N)N)NC(=O)[C@H](Cc2ccc(O)cc2)NC(=O)[C@H](C(C)C)NC(=O)[C@H](CCCNC(=N)N)NC(=O)CNC(=O)[C@H](CC(C)C)NC1=O [MCH, melanin-concentrating hormone]
[2]
  effect on intracellular calcium levels (peptide library screen): increased intracellular calcium levels
[3]
  specificity of binding to TGR342: specific
[4]; [8]
  PTX sensitivity of the Ca^2+ response, TGR342: insensitive to PTX treatment
[4]; [9]
  Ca^2+ levels in TGR342-transfected cells: increased levels
[5]
  PTX sensitivity of the Ca^2+ response, MCHR1: mostly inhibited
[6]; [8]
  PTX sensitivity of the inositol phosphate response, TGR342: insensitive to PTX treatment
[6]; [9]
  inositol phosphate levels in TGR342-transfected cells: increased levels; also recorded: increased the production of inositol phosphate

## [Phe^13, Tyr^19]-MCH
[2]
  TGR342 agonist activity of MCH-related peptides: activates
[7]
  activation of MCHR1 (known): bind and activate

## cortistatin-14 (PCKNFFWKTFSSCK; ends and bridges not checked; cysteine pairing not given here; UniProt Q62949 99-112, looked up) [peptide structurally very similar to somatostatin]
[2]
  TGR342 agonist activity at 1 μM: None of these peptides exhibited activity

## cortistatin-17
[2]
  TGR342 agonist activity at 1 μM: None of these peptides exhibited activity

## neuropeptide GE: peptide from the same MCH precursor (GSVAFPAENGVQNTESTQE; Neuropeptide-glycine-glutamic acid; UniProt P20382 110-128, looked up)
[2]
  TGR342 agonist activity of MCH-related peptides: inactive

## neuropeptide-EI: peptide from the same MCH precursor (EIGDEENSAKFPI; ends and bridges not checked; UniProt P20382 131-143, looked up)
[2]
  TGR342 agonist activity of MCH-related peptides: inactive

## somatostatin-14
[2]
  TGR342 agonist activity at 1 μM: None of these peptides exhibited activity

## somatostatin-28
[2]
  TGR342 agonist activity at 1 μM: None of these peptides exhibited activity

## α-MSH: the functional MCH antagonist
[2]
  TGR342 agonist activity at 1 μM: inactive as an agonist
  effect on intracellular calcium levels (peptide library screen): Neither somatostatin nor α-MSH showed any detectable effect

Reference: US20050170397A1, “Novel receptors” (Tularik Inc., priority 2000, published 2005)
